Biological target: T1, HDAC6 enzyme (Homo sapiens, UniProt Q9UBN7)
T1 construct: HDAC6 enzyme prepared by transducing full length HDAC6 gene into Sf-9 insect cells; GST; purchased SignalChem; host or cells: Sf-9 insect cells
T1 sequence (Q9UBN7 1-1215): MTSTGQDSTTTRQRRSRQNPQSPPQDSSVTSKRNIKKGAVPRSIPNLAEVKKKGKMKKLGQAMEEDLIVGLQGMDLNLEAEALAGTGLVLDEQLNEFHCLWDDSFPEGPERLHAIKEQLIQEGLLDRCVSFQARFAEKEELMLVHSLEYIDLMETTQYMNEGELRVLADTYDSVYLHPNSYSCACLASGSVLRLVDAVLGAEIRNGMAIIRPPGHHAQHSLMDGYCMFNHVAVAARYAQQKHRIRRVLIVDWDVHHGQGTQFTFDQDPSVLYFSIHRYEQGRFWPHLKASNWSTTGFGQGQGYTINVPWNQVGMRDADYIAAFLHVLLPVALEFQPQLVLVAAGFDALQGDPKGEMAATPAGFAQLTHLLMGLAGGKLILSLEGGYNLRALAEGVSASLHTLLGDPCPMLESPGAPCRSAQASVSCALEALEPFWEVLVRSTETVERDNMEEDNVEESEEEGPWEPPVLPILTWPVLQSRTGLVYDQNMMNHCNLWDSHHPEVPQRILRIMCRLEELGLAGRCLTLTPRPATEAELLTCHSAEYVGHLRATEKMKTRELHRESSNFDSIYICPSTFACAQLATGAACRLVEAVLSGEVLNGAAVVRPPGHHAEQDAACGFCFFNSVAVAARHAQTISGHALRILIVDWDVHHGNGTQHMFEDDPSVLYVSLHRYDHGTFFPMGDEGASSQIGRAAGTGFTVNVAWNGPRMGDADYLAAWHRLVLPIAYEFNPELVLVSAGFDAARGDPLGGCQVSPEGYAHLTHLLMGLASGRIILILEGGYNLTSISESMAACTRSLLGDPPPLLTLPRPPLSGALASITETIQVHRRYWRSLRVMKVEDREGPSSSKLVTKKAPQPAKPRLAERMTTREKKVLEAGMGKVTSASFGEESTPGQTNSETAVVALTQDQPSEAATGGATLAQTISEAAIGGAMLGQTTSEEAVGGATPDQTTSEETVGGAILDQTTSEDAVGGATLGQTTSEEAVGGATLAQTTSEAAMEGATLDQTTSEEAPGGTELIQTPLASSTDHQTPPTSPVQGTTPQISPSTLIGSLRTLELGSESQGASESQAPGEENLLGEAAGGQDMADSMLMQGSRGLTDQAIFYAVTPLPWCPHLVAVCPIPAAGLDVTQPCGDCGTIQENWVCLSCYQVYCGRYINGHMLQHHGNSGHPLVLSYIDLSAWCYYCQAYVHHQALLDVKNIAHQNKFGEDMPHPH
Experiment: HDAC6 enzyme inhibitory assay (HDAC-Glo I/II Assay kit)
Type: biochemical
Conditions: wells without enzyme = 100% inhibition; for inhibition at 10 µM: read-out: HDAC6 inhibitory rate (%) (10 μM)
In short: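 Full-length GST-purified HDAC6 from Sf-9 cells preincubated with compound 60 min at room temperature in Tris-HCl pH 7.5 buffer with MgCl2, KCl, NaCl, glutathione, Tween-20. Substrate-developer reaction 20 min, luminescence read; no-enzyme wells set as 100% inhibition.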

| SMILES | inhibition at 10 µM [%] | HDAC6 inhibitory rate (%) (10 μM) (10 µM) | further results |
| --- | --- | --- | --- |
| O=C1c2cc(-c3nnc(C(F)F)o3)ccc2CN1[C@H](c1cccc(F)n1)[C@@H](O)c1ccccn1 (single isomer, unassigned) [Example 75, 6-[5-(difluoromethyl)-1,3,4-oxadiazol-2-yl]-2-[(1R*,2R*)-1-(6-fluoropyridin-2-yl)-2-hydroxy-2-(pyridin-2-yl)ethyl]-2,3-dihydro-1H-isoindol-1-one] | 99 | – | – |
| O=C1c2cc(-c3nnc(C(F)F)o3)ccc2CN1[C@H](c1cccc(F)n1)[C@@H](O)c1ccccn1 (single isomer, unassigned) [Example 76, 6-[5-(difluoromethyl)-1,3,4-oxadiazol-2-yl]-2-[(1R*,2R*)-1-(6-fluoropyridin-2-yl)-2-hydroxy-2-(pyridin-2-yl)ethyl]-2,3-dihydro-1H-isoindol-1-one] | – | 100 | – |
| O=C1c2cc(-c3nnc(C(F)F)o3)ccc2CN1[C@H](C1CC1)[C@@H](O)c1ccc(C(F)(F)F)nc1 (single isomer, unassigned) [Example 77, 2-{(1R*,2S*)-1-cyclopropyl-2-hydroxy-2-[6-(trifluoromethyl)pyridin-3-yl]ethyl}-6-[5-(difluoromethyl)-1,3,4-oxadiazol-2-yl]-2,3-dihydro-1H-isoindol-1-one] | 100 | – | – |
| O=C1c2cc(-c3nnc(C(F)F)o3)ccc2CN1[C@H](C1CC1)[C@@H](O)c1cccc(F)n1 (single isomer, unassigned) [Example 79, 2-[(1R*,2R*)-1-cyclopropyl-2-(6-fluoropyridin-2-yl)-2-hydroxyethyl]-6-[5-(difluoromethyl)-1,3,4-oxadiazol-2-yl]-2,3-dihydro-1H-isoindol-1-one] | 99 | – | – |
| O=C1c2cc(-c3nnc(C(F)F)o3)ccc2CN1[C@H](C1CC1)[C@@H](O)c1cccc(F)n1 (single isomer, unassigned) [Example 80, 2-[(1R*,2R*)-1-cyclopropyl-2-(6-fluoropyridin-2-yl)-2-hydroxyethyl]-6-[5-(difluoromethyl)-1,3,4-oxadiazol-2-yl]-2,3-dihydro-1H-isoindol-1-one] | – | 100 | – |
| O=C1c2cc(-c3nnc(C(F)F)o3)ccc2CN1[C@H](C1CCOCC1)[C@@H](O)c1ccc(Cl)cc1 (single isomer, unassigned) [Example 83, 2-[(1R*,2S*)-2-(4-chlorophenyl)-2-hydroxy-1-(oxan-4-yl)ethyl]-6-[5-(difluoromethyl)-1,3,4-oxadiazol-2-yl]-2,3-dihydro-1H-isoindol-1-one] | 101 | – | – |
| O=C1c2cc(-c3nnc(C(F)F)o3)ccc2CN1[C@H](C1CCOCC1)[C@@H](O)c1ccc(Cl)cc1 (single isomer, unassigned) [Example 84, 2-[(1R*,2S*)-2-(4-chlorophenyl)-2-hydroxy-1-(oxan-4-yl)ethyl]-6-[5-(difluoromethyl)-1,3,4-oxadiazol-2-yl]-2,3-dihydro-1H-isoindol-1-one] | – | 100 | – |
| O=C1c2cc(-c3nnc(C(F)F)o3)ccc2CN1[C@H](c1cnccn1)[C@@H](O)c1ccc(F)c(F)c1 (single isomer, unassigned) [Example 85, 6-[5-(difluoromethyl)-1,3,4-oxadiazol-2-yl]-2-[(1R*,2S*)-2-(3,4-difluorophenyl)-2-hydroxy-1-(pyrazin-2-yl)ethyl]-2,3-dihydro-1H-isoindol-1-one] | 100 | – | – |
| O=C1c2cc(-c3nnc(C(F)F)o3)ccc2CN1[C@H](c1cnccn1)[C@@H](O)c1ccc(F)c(F)c1 (single isomer, unassigned) [Example 86, 6-[5-(difluoromethyl)-1,3,4-oxadiazol-2-yl]-2-[(1R*,2S*)-2-(3,4-difluorophenyl)-2-hydroxy-1-(pyrazin-2-yl)ethyl]-2,3-dihydro-1H-isoindol-1-one] | – | – | HDAC6 inhibitory rate (%) (10 μM): 100% |
| O=C1c2cc(-c3nnc(C(F)F)o3)ccc2CN1[C@H](C1CCOCC1)[C@@H](O)c1ccc(F)c(F)c1 (single isomer, unassigned) [Example 87, 6-[5-(difluoromethyl)-1,3,4-oxadiazol-2-yl]-2-[(1R*,2S*)-2-(3,4-difluorophenyl)-2-hydroxy-1-(oxan-4-yl)ethyl]-2,3-dihydro-1H-isoindol-1-one] | 100 | – | – |
| O=C1c2cc(-c3nnc(C(F)F)o3)ccc2CN1[C@H](C1CCOCC1)[C@@H](O)c1ccc(F)c(F)c1 (single isomer, unassigned) [Example 88, 6-[5-(difluoromethyl)-1,3,4-oxadiazol-2-yl]-2-[(1R*,2S*)-2-(3,4-difluorophenyl)-2-hydroxy-1-(oxan-4-yl)ethyl]-2,3-dihydro-1H-isoindol-1-one] | – | 99 | – |
| O=C1c2cc(-c3nnc(C(F)F)o3)ccc2CN1[C@H](c1cccc(F)n1)[C@@H](O)c1cccc(F)c1 (single isomer, unassigned) [Example 89, 6-[5-(difluoromethyl)-1,3,4-oxadiazol-2-yl]-2-[(1R*,2S*)-2-(3-fluorophenyl)-1-(6-fluoropyridin-2-yl)-2-hydroxyethyl]-2,3-dihydro-1H-isoindol-1-one] | 100 | – | – |
| O=C1c2cc(-c3nnc(C(F)F)o3)ccc2CN1[C@H](c1cccc(F)n1)[C@@H](O)c1cccc(F)c1 (single isomer, unassigned) [Example 90, 6-[5-(difluoromethyl)-1,3,4-oxadiazol-2-yl]-2-[(1R*,2S*)-2-(3-fluorophenyl)-1-(6-fluoropyridin-2-yl)-2-hydroxyethyl]-2,3-dihydro-1H-isoindol-1-one] | – | – | HDAC6 inhibitory rate (%) (10 μM): 100% |
| O=C1c2cc(-c3nnc(C(F)F)o3)ccc2CN1[C@H](c1cnccn1)[C@@H](O)c1cccc(Cl)c1 (single isomer, unassigned) [Example 91, 2-[(1R*,2S*)-2-(3-chlorophenyl)-2-hydroxy-1-(pyrazin-2-yl)ethyl]-6-[5-(difluoromethyl)-1,3,4-oxadiazol-2-yl]-2,3-dihydro-1H-isoindol-1-one] | 100 | – | – |
| O=C1c2cc(-c3nnc(C(F)F)o3)ccc2CN1[C@H](c1cnccn1)[C@@H](O)c1cccc(Cl)c1 (single isomer, unassigned) [Example 92, 2-[(1R*,2S*)-2-(3-chlorophenyl)-2-hydroxy-1-(pyrazin-2-yl)ethyl]-6-[5-(difluoromethyl)-1,3,4-oxadiazol-2-yl]-2,3-dihydro-1H-isoindol-1-one] | – | – | HDAC6 inhibitory rate (%) (10 μM): 100% |
| O=C1c2cc(-c3nnc(C(F)F)o3)ccc2CN1[C@H](c1ncccn1)[C@@H](O)c1ccc(F)c(F)c1 (single isomer, unassigned) [Example 94, 6-[5-(difluoromethyl)-1,3,4-oxadiazol-2-yl]-2-[(1R*,2S*)-2-(3,4-difluorophenyl)-2-hydroxy-1-(pyrimidin-2-yl)ethyl]-2,3-dihydro-1H-isoindol-1-one] | 100 | – | – |
| O=C1c2cc(-c3nnc(C(F)F)o3)ccc2CN1[C@H](c1ncccn1)[C@@H](O)c1ccc(F)c(F)c1 (single isomer, unassigned) [Example 95, 6-[5-(difluoromethyl)-1,3,4-oxadiazol-2-yl]-2-[(1R*,2S*)-2-(3,4-difluorophenyl)-2-hydroxy-1-(pyrimidin-2-yl)ethyl]-2,3-dihydro-1H-isoindol-1-one] | – | 99 | – |
| O=C1c2cc(-c3nnc(C(F)F)o3)ccc2CN1[C@H](c1cnccn1)[C@@H](O)c1ccc(Cl)cc1 (single isomer, unassigned) [Example 96, 2-[(1R*,2S*)-2-(4-chlorophenyl)-2-hydroxy-1-(pyrazin-2-yl)ethyl]-6-[5-(difluoromethyl)-1,3,4-oxadiazol-2-yl]-2,3-dihydro-1H-isoindol-1-one] | 100 | – | – |
| O=C1c2cc(-c3nnc(C(F)F)o3)ccc2CN1[C@H](c1cnccn1)[C@@H](O)c1ccc(Cl)cc1 (single isomer, unassigned) [Example 97, 2-[(1R*,2S*)-2-(4-chlorophenyl)-2-hydroxy-1-(pyrazin-2-yl)ethyl]-6-[5-(difluoromethyl)-1,3,4-oxadiazol-2-yl]-2,3-dihydro-1H-isoindol-1-one] | – | 99 | – |

From patent publication US12384770B2, “Heterocyclic compound” (Takeda Pharmaceutical Company Limited, priority 2019, dated 2025)
